Four compounds from PubChem BioAssay AID246 (DTP/NCI, 2004) can be followed below.

Values joined by “and” are separate entries in the source; they are usually repeats but may differ in a detail not shown here. Equal entries are not always repeated. Toxic doses and inconclusive results are not listed.

This assay relates to BDF1 mice, P1081 chloroleukemia ip, survival T/C. In words: NCI In Vivo Anticancer Drug Screen. Data for tumor model P1081 Chloroleukemia (intraperitoneal) in B6D2F1 (BDF1) mice. The conditions noted are these: endpoint: mean survival time, higher = longer survival. On the procedure:
The antitumor activity of compounds was measured in mice bearing transplantable tumors. Survival or tumor size were measured and the results are expressed as the measurement made in the treated group (T) divided by the measurement made in the vehicle treated control group (C). The tumor model used in this assay is P1081 Chloroleukemia (intraperitoneal) in B6D2F1 (BDF1) mice

Where [1] appears, read: dose: 8.0 mg/kg/injection, schedule: Q01DX010 (ip), vehicle: saline.
Setting [2] is: dose: 16.0 mg/kg/injection, schedule: Q01DX010 (ip), vehicle: saline.

Consider `Nc1nc(=S)c2ncn(C3OC(CO)C(O)C3O)c2[nH]1` (configuration not stated), for which the T/C runs as follows: (dose: 0.31 mg/kg/injection, schedule: Q01DX Z (ip), vehicle: carboxymethylcellulose (CMC)) 117 % of control; (dose: 0.63 mg/kg/injection, schedule: Q01DX Z (ip), vehicle: carboxymethylcellulose (CMC)) 115 % of control; (dose: 2.5 mg/kg/injection, schedule: Q01DX Z (ip), vehicle: carboxymethylcellulose (CMC)) 158 % of control; (dose: 5.0 mg/kg/injection, schedule: Q01DX Z (ip), vehicle: carboxymethylcellulose (CMC)) 95 % of control; under setting [1], 95 % of control; under setting [2], 90 % of control. Also, the T/C (dose: 20.0 mg/kg/injection, schedule: Q01DX Z (ip), vehicle: carboxymethylcellulose (CMC)) is 90 % of control.

On to `O=C1CCC(N2C(=O)c3ccccc3C2=O)C(=O)N1` (configuration not stated), for which the T/C reads like this: (dose: 18.75 mg/kg/injection, schedule: Q01DX Z (ip), vehicle: carboxymethylcellulose (CMC)) 89 % of control; (dose: 37.5 mg/kg/injection, schedule: Q01DX Z (ip), vehicle: carboxymethylcellulose (CMC)) 98 % of control; (dose: 75.0 mg/kg/injection, schedule: Q01DX Z (ip), vehicle: carboxymethylcellulose (CMC)) 94 % of control; (dose: 150.0 mg/kg/injection, schedule: Q01DX Z (ip), vehicle: carboxymethylcellulose (CMC)) 94 % of control.

Consider `C=CC(CN1CC1)OC(C)=O` (configuration not stated), for which the T/C runs as follows: (dose: 0.24 mg/kg/injection, schedule: Q01DX Z (ip), vehicle: carboxymethylcellulose (CMC)) 108 % of control; (dose: 0.47 mg/kg/injection, schedule: Q01DX Z (ip), vehicle: carboxymethylcellulose (CMC)) 116 % of control; (dose: 0.94 mg/kg/injection, schedule: Q01DX Z (ip), vehicle: carboxymethylcellulose (CMC)) 103 % of control; (dose: 3.75 mg/kg/injection, schedule: Q01DX Z (ip), vehicle: carboxymethylcellulose (CMC)) 194 % of control; (dose: 4.0 mg/kg/injection, schedule: Q01DX010 (ip), vehicle: saline) 150 % of control; under setting [1], 160 % of control. For the same compound, the T/C under setting [2] is 170 % of control.

For `CN(C)/N=N/c1nc[nH]c1C(N)=O`, the T/C runs as follows: (dose: 25.0 mg/kg/injection, schedule: Q01DX010 (ip), vehicle: saline) 120 % of control; (dose: 50.0 mg/kg/injection, schedule: Q01DX010 (ip), vehicle: saline) 120 % of control; (dose: 100.0 mg/kg/injection, schedule: Q01DX010 (ip), vehicle: saline) 160 % of control and 177 % of control; (dose: 200.0 mg/kg/injection, schedule: Q01DX010 (ip), vehicle: saline) 122 % of control.
